Data taken from patent EP0086757A1, “Derivatives of alpha or beta-mercaptopropionylamidoacetic acids, processes for their preparation and the therapeutic compositions which include them as active principles” (Farmatis S.r.l., priority 1982, dated 1983).
Like-named read-outs stand apart in the source and are kept apart here.

Experiments:
[1] = test system: Carragenin-induce edema in hind paw of the rat; test: carragenin-induced hind paw edema (anti-inflammatory activity); type: in vivo, rats; details: oral by esophagal probe one hour before carragenin; paw volume three hours later
Method: The anti-inflammatory activity was investigated on rats by administering the new products,orally,using an esophagal probe. One hour after administration, a subcutaneous injection of 0.05 ml of 1% carragenin was made in the right hind paw and three hours later a plethysmometric evaluation was made of the difference in volume between the two hind paws (WINTER C.A., RISLEY E.A., NUSS G.W., Carragenin-induce edema in hind paw of the rat as an assay for anti-inflammatory drugs. Proc. Soc. Exp. Biol. Med., 111, 544 - 1962).

[2] = test system: glycopeptides of the bronchial mucus; test: glycopeptide analysis of bronchial mucus of orally treated patients with bronchial hypersecretion; type: in vivo; details: comparative test, 70 mg/kg/die
[3] = test system: rats which underwent CCl4 nebulization treatment; test: CCl4 nebulization, bronchial mucosa protection; type: in vivo; details: oral 0.5 g/kg/die; CCl4 nebulization 10 days, 5 applications, 2 minutes per day
Text: (§1) Finally, with the rats which underwent CCl4 nebulization treatment for 10 days (5 applications, 2.minutes per day), the contemporaneous oral administration of the esters of this invention, at doses of 0.5 g/kg/die, prevented intrabronchial desquamation and reactive hyperplasia of the mucosa to the extent of 60%.

aerosol histaminic shock = aerosol histaminic shock (antibronchospastic activity); type: in vivo
Method: The antibronchospastic activity of the new compounds, in face, was evaluated by pretreating test animals with 2 g/kg of the new compounds, administered by way of an esophagal probe, and then submitting them to aerosol histaminic shock (histamine phosphate 1:80 at about 140 mm Eg). The time was noted between when the aerosol was given and the convulsions began. After two hours of pretreatment, times amounting to 70% of the approximately 120 seconds of the control group were obtained. […] The new compounds, therefore, provide intense and persistent protection against bronchspasm induced experimentally with histamine, in strict correlation with the anti-inflammatory activity reported previously.

[4] = test system: bronchial hypersecretion induced in rats with SO2; test: bronchial hypersecretion induced with SO2 inhalation; type: in vivo; details: oral 0.5 g/kg/die for two weeks; 300 ppm SO2 two hours per day, total 90 hours; untreated 80%
Method: as §1, with “The inhalation of 300 ppm of […] for two hours per day, for a total period of 90 hours, produced bronchial obstruction in only 12% of the animals compared to the 80% produced in those not treated. […] Finally,” for “Finally,”

acute toxicity (DL50) = type: in vivo
Method: In fact, while S-carboxymethylcysteine has a DL50 of 5.18 g/kg, the new thiolic esters' DL50 cannot be determined, i.p., since more than 5 g/kg cannot be administered; but, orally, the DL50 is above 8 g/kg, as with the S-carboymethylcysteine. The subacute, chronic and fetal toxi city was evaluated by mixing the esters with the food.

[5] = test system: Carragenin-induce edema in hind paw of the rat; details: comparison value for a classical antiphlogistic; cited from earlier work

Row | SMILES | DE50 [1] | average increase in sialoglycopeptides [2] [%] | diminution of glycopeptides and mucin [2] [%] | prevention of intrabronchial desquamation and reactive hyperplasia of the mucosa [3] [%] | difference between the control and tested subjects in time to convulsions (aerosol histaminic shock) | animals with bronchial obstruction (not protected) [4] [%] | DL50 (acute toxicity (DL50); i.p. (route only implied for the comparator), more than 5 g/kg cannot be administered) [g/kg] | DL50 (acute toxicity (DL50); orally) | DE50 [5] [mg/kg]
1 | N[C@@H](CSCC(=O)O)C(=O)O [S-carboxymethylcysteine] | not determinable | ≤ 75 | ≤ 45 | ≤ 40 | no appreciable difference | 25 | 5.18 | above 8 g/kg | 
2 | CC(=O)Oc1ccccc1C(=O)O [acetylsalicylic acid] |  |  |  |  |  |  |  |  | 100
